Source: patent US4283418A, “Guanidinobenzoic acid derivatives and process for their preparation” (Ono Pharmaceutical Co., Ltd., priority 1979, dated 1981)

Legend:
trypsin = target: T1, trypsin (Bos taurus, UniProt P00760); test: Inhibition of trypsin hydrolysis of p-tosylarginine methyl ester in vitro; type: biochemical; settings: trypsin 0.5 μg, p-tosylarginine methyl ester 20 mM, Tris-HCl pH 8.5, 37° C., 30 minutes; read-out: 50% Inhibition Concentration Anti-trypsin
T1 sequence (P00760 24-246): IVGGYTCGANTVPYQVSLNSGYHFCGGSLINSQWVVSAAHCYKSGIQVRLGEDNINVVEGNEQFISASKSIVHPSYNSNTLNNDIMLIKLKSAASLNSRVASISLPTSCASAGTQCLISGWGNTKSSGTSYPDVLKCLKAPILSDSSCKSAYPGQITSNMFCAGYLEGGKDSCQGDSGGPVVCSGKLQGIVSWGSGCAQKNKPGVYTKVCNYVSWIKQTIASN
Experimental: (§1) The inhibitory activities of representative compounds of the general formula [I] against plasmin and trypsin in vitro were determined in a manner similar to the method described by M. Muramatsu et al J. Biochemistry, 58, 214 (1964) for trypsin and the method described by M. Muramatsu et al ibid, 57, 402 (1965) for plasmin. The procedures used are described more specifically below.
(1) Trypsin: 0.4 ml of trypsin (1.25 μg/ml), 0.5 ml of p-tosylarginine methyl ester (20 mM) in Tris-HCl buffer (pH 8.5) and 0.1 ml of a solution of each of the following compounds represented by the general formula [I] at various concentrations was reacted at a temperature of 37° C. for 30 minutes, and the concentration of each of the test compounds at which the activity of trypsin 0.5 μg to hydrolyze p-tosylarginine methyl ester was inhibited to an extent of 50% is shown in Table 1 below.

plasmin = target: T2, plasmin (Homo sapiens, UniProt P00747); test: Inhibition of plasmin in vitro (human euglobulin, streptokinase, fibrinogen); type: biochemical; settings: borate saline buffer pH 7.4, 37° C., 30 minutes, read-out: 50% Inhibition Concentration Anti-Plasmin
T2 construct: from tissue
T2 sequence (P00747 97-580 limits assumed): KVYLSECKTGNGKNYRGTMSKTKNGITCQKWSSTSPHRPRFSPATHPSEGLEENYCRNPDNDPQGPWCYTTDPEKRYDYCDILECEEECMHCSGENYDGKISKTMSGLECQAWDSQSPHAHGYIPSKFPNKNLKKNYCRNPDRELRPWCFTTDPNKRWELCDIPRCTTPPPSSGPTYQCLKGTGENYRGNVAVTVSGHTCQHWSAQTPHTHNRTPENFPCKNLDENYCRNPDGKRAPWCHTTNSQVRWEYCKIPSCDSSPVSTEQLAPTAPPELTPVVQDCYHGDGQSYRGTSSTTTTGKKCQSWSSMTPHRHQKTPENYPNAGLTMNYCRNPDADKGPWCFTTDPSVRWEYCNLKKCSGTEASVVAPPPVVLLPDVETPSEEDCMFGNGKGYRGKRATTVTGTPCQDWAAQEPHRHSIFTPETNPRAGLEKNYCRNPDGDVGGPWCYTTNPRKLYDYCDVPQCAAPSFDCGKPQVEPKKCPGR
T2 sequence (P00747 581-810 limits assumed): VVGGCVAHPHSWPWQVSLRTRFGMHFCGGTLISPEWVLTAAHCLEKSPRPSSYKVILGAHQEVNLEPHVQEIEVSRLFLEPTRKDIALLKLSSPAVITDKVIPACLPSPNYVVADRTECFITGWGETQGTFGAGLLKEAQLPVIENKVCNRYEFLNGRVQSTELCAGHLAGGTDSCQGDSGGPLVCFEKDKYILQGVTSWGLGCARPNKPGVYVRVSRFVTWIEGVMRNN
Experimental: as §1
(2) Plasmin: 0.1 ml of human euglobulin (10 fold dilution), 0.1 ml of streptokinase (2000 unit/ml), 0.4 ml of fibrinogen (4% solution), 0.3 ml of a 0.1 M borate saline buffer solution (pH 7.4) and 0.1 ml of a solution of each of the following compounds represented by the general formula [I] at various concentrations was allowed to react at a temperature of 37° C. for 30 minutes.

Solubility in water = type: physicochemical

Row | Structure (SMILES) | IC50 (trypsin) [nM] | IC50 (plasmin) [nM] | solubility (Solubility in water) [mM]
1 | CNS(=O)(=O)c1ccc(OC(=O)c2ccc(NC(=N)N)cc2)cc1 [Compound No. 1] | 3 | 3.1 | > 20
2 | CN(C)S(=O)(=O)c1ccc(OC(=O)c2ccc(NC(=N)N)cc2)cc1 [Compound No. 2] | 2 | 6.4 | > 20
3 | N=C(N)Nc1ccc(C(=O)Oc2ccc(S(N)(=O)=O)cc2)cc1 [Compound No. 3] | 2.2 | 4.8 | > 20
4 | CN(C)C(=O)Cc1ccc(OC(=O)c2ccc(NC(=N)N)cc2)cc1 [Compound No. 4] | 3.4 | 270 | > 20
5 | CNC(=O)Cc1ccc(OC(=O)c2ccc(NC(=N)N)cc2)cc1 [Compound No. 5] | 9.1 | 410 | > 20
6 | CN(C)C(=O)c1ccc(OC(=O)c2ccc(NC(=N)N)cc2)cc1 [Compound No. 6] | 11 | 95 | > 20
